Holding throughout (assay type): functional
For test [1], the system named is Candida albicans. Briefly: Reduction in antifungal activity of amphotericine B was determined against Candida albicans after addition of 60 ppm of cholesterol to the culture.
The test system of test [2] is Candida albicans. The test is described as follows: Reduction in antifungal activity of amphotericine B was determined against Candida albicans after addition of 60 ppm of compound to the culture.
Test [3] relates to Candida albicans. Briefly: Residual antifungal activity of amphotericine B was determined against Candida albicans after addition of 30 ppm of ent-cholesterol to the culture; (Range 14-24 mm).
For test [4], the system named is Candida albicans. The test is described as follows: Residual antifungal activity of amphotericine B was determined against Candida albicans after addition of 60 ppm of cholesterol to the culture.

This is an account of results in ChEMBL document CHEMBL1148246, “Differential modulation of the antifungal activity of amphotericin B by natural and ent-cholesterol” (2004).

Molecules are shown by their SMILES. Where “and” joins values, the source holds several entries; their conditions need not be identical. Identical values can stand only once.

For `C[C@@H]1[C@H](O)[C@@H](C)/C=C/C=C/C=C/C=C/C=C/C=C/C=C/[C@H](O[C@@H]2O[C@H](C)[C@@H](O)[C@H](N)[C@@H]2O)C[C@@H]2O[C@](O)(C[C@@H](O)C[C@@H](O)[C@H](O)CC[C@@H](O)C[C@@H](O)CC(=O)O[C@H]1C)C[C@H](O)[C@H]2C(=O)O` [AMPHOTERICIN B], the Antifungal activity was 82% in test [1]; 76% and 62% in test [2]; 87% in test [3]; 73% in test [4].
